Assay results: patent US9340549B2, “Oxazolidinone compounds and derivatives thereof” (priority 2012, dated 2016)
Like-named read-outs stand apart in the source and are kept apart here.

Key:
[1] = molecular target: 6×HIS-tankyrase 1 (1091-1325) (Homo sapiens (Human), UniProt O95271); assay: biochemical; assay type: biochemical; conditions: […] enzyme, 400 nM NAD, 60 minutes at room temperature; read-out: TNKS1 IP IC50
[2] = molecular target: 6×HIS-tankyrase 2 (946-1162) (Homo sapiens (Human), UniProt Q9H2K2); assay: Tankyrase 2 biochemical assay (AlphaLisa, anti-PAR detection); conditions: 4 nM enzyme, 250 nM NAD; read-out: TNKS2 IP IC50
[3] = system: total β-catenin in SW480 colorectal cells; assay: cells; assay type: cell-based; conditions: Homo sapiens
In short: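 SW480 cells in growth medium (MEM alpha, 10% heat-inactivated FBS, 10 mM HEPES) treated with a 10-point, 3-fold dilution series of TNKS inhibitor for 40–48 h at 37 °C. Lysates run on an MSD sandwich immunoassay for total β-catenin, read by electrochemiluminescence.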

[4] = system: Axin2 in SW480 cells; assay: cells; assay type: cell-based; conditions: Homo sapiens, read-out: Axin2 384 IF EC50 IP
In short: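 SW480 cells treated 24 h at 37° C (0.5% DMSO final), fixed/permeabilized, immunostained for Axin2. ArrayScan imaging quantified ring-spot intensity; Axin2 accumulation expressed as percent of control, EC50 from concentration-response.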

[5] = system: 8×TCF promoter-driven Firefly luciferase (Wnt reporter) in HEK-293 cells; assay: 2H9-STF assay, Wnt ligand activated HEK-293 assay in WT APC cellular context; assay type: cell-based; conditions: Homo sapiens
Procedure: HEK-293 cells engineered with an 8×TCF promoter-driven Firefly (FF) luciferase gene (Wnt reporter) along with an SV40 promoter-driven Renilla (RN) luciferase gene (control reporter) were used to measure the potency of tankyrase compounds in the context of Wnt ligand activation in a wild-type (non-APC mutated) cellular background. The engineered HEK-293 cells were plated (25 μL) at a density of 40,000 cells/well in black, clear-bottom, 96-well View plates (PerkinElmer) in normal growth medium (DMEM with 10% FBS with no antibiotics). Tankyrase inhibitors (5 μL) were transferred to cells from a three-fold serially diluted compound plate. A 10-point dilution series was tested starting at a concentration (10 μM final concentration in assay). Column 6 contained only DMSO and served as the “HI” control. Cells and compounds were incubated together for 1 hour at 37° C. after which the Wnt3a ligand (pathway inducer) was added to all wells except column 12 which served as the “LO” control. Twenty microliters of diluted recombinant mouse Wnt3a (R & D Systems) was added to the cells for a final concentration of 200 ng/mL (5 nM which is the Wnt3a˜EC80) and the plates were incubated at 37° C. for 18 to 24 hours. The Dual-Glo Reagents (Promega) were added as directed by manufacturer to assay the FF and RN luciferase activity. Luciferase activity was measures using the EnVision multilabel plate reader (PerkinElmer).

[6] = system: 8×TCF promoter-driven Firefly luciferase (Wnt reporter) in DLD-1 colorectal cells; assay: DLD-1-STF assay, constitutively activated Wnt pathway in mutant APC cancer cell context; assay type: cell-based; conditions: Homo sapiens
Procedure: DLD-1-STF Assay. Constitutively Activated Wnt Pathway Assay in Mutant APC Cancer Cell Context
DLD-1 colorectal cells engineered with an 8×TCF promoter-driven Firefly (FF) luciferase gene (Wnt reporter) along with an EF1a promoter-driven Renilla (RN) luciferase gene (control reporter) were used to measure the potency of tankyrase compounds in the context of the constitutively activated Wnt pathway due to mutated APC in colorectal cancer cells. The engineered DLD-1 cells were plated (45 μL) at a density of 10,000 cells/well in black, clear-bottom, 96-well View plates (PerkinElmer) in normal growth medium (RPMI with 10% FBS with no antibiotics). Tankyrase inhibitors (5 μL) were transferred to cells from a three-fold serially diluted compound plate. A 10-point dilution series was tested starting at a concentration (10 μM final concentration in assay). Column 6 contained only DMSO and served as the “HI” control. […] The plates were incubated at 37° C. for 40 to 48 hours. The Dual-Glo Reagents (Promega) were added as directed by manufacturer to assay the FF and RN luciferase activity. Luciferase activity was measures using the EnVision multilabel plate reader (PerkinElmer).

[7] = system: SW480 cells; assay: Colony formation assay; assay type: cell-based; conditions: Homo sapiens, read-out: SW480 Colony Inhibition IC50
Procedure: Colorectal cell lines grown under normal logarithmic growth conditions in 10% FBS were trypsinized, counted in a Vi-CELL Cell Viability Analyzer and diluted to 400 cells/mL in RPMI media containing 0.5% FBS. Cells were plated in 12 well plates using 0.5 mL of diluted cells for a total of 200 cells/well. Tankyrase inhibitors were diluted in RPMI (0.5% FBS) at 2× final concentration. Ten concentrations of compound were prepared starting at 20 μM and serially diluted by 2 fold and 0.5 mL of diluted compound was added to each well. The final concentration range tested was thus 10 μM down to 20 nM. Two additional wells per plate were treated with the vehicle control (0.1% DMSO). The cells were grown for 12 days with the media and the compounds changed at day 6. Colonies were visualized by fixing and staining with Crystal Violet dye diluted in 1× fixation solution (2% formaldehyde, 0.2%, glutaraldehyde in 1×PBS) for 30 minutes at room temperature. The plates were washed extensively and air dried. Images of plates were captured and the colony counts were performed using the Bioreader® (Biosys) reader.

[8] = HEK293, read-out: 2H9-Wnt3a-STF-FF/RL * 100 IC50
[9] = SW480 cells, 40 to 48 hours, top concentration 10 μM, read-out: SW480-Total β-Catenin IC50 IP
[10] = SW480, 24 h, SW480 cells, 24 hours
[11] = DLD-1 reporter cells, 40 to 48 hours, read-out: DLD1-STF-FF/RL * 100 IC50

Chain of 6×HIS-tankyrase 1 (1091-1325) (O95271 1091-1325): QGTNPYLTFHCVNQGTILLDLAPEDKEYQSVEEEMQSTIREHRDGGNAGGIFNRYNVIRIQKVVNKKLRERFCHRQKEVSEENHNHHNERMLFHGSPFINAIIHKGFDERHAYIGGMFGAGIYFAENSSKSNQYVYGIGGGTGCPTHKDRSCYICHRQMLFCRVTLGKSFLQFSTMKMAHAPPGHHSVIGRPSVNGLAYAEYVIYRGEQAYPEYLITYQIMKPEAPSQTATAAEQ
Chain of 6×HIS-tankyrase 2 (946-1162) (Q9H2K2 946-1162): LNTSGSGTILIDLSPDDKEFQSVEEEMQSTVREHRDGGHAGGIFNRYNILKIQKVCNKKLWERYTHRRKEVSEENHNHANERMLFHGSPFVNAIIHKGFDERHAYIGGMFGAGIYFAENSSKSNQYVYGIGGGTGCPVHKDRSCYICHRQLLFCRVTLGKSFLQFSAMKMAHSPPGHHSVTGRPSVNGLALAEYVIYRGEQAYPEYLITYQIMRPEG

Row | SMILES | IC50 [1] [nM] | IC50 [2] [nM] | IC50 [5, 8] [nM] | IC50 [3, 9] [nM] | EC50 [4, 10] [nM] | IC50 [6, 11] [nM] | also measured
1 | CC1(C)OC(=O)N(c2ccc(-c3cc(-c4ncccn4)c[nH]c3=O)cc2)[C@H]1c1ccccc1 [Example 4, (S)-5,5-Dimethyl-3-(4-(2-oxo-5-(pyrimidin-2-yl)-1,2-dihydropyridin-3-yl)phenyl)-4-phenyloxazolidin-2-one] | 76.9 | 65.9 | 290 | – | – | – | IC50 ([3]; SW480, read-out: SW480-Total β-Catenin IC50 IP): 750 nM; EC50 ([4]; SW480, 24 h): 2840 nM
2 | CC1(C)OC(=O)N([C@H]2CC[C@H](n3c(=O)[nH]c4cnccc43)CC2)[C@H]1c1ccccc1 [Example 23, (S)-5,5-dimethyl-3-((1r,4S)-4-(2-oxo-2,3-dihydro-1H-imidazo[4,5-c]pyridin-1-yl)cyclohexyl)-4-phenyloxazolidin-2-one] | – | – | – | 143 | 231 | 44 | –
3 | CC1(C)OC(=O)N([C@H]2CC[C@H](NC(=O)c3cccc4cccnc34)CC2)[C@H]1c1ccccc1 [Example 26, N-((1S,4r)-4-((S)-5,5-dimethyl-2-oxo-4-phenyloxazolidin-3-yl)cyclohexyl)quinoline-8-carboxamide] | – | – | 55 | – | – | – | IC50 ([7]; SW480, 288 h): 1300 nM
4 | CC1(C)OC(=O)N([C@H]2CC[C@H](n3c(=O)[nH]c4cc(C#N)ccc43)CC2)[C@H]1c1ccccc1 [Example 47, 1-((1S,4r)-4-((S)-5,5-dimethyl-2-oxo-4-phenyloxazolidin-3-yl)cyclohexyl)-2-oxo-2,3-dihydro-1H-benzo[d]imidazole-5-carbonitrile] | – | – | – | 53.7 | – | – | EC50 ([4]; SW480 cells, 24 hours): 72.9 nM; IC50 ([6]; DLD-1, read-out: DLD1-STF-FF/RL * 100 IC50): 12 nM
5 | CC1(C)OC(=O)N(c2ccc(-c3cnc(N)c(-c4ncccn4)c3)cc2)[C@H]1c1ccccc1 [Example 65, (S)-3-(4-(6-amino-5-(pyrimidin-2-yl)pyridin-3-yl)phenyl)-5,5-dimethyl-4-phenyloxazolidin-2-one] | 49 | 25.9 | – | 233 | 1440 | 107 | IC50 ([5]; HEK293, HEK-293 reporter cells, 200 ng/mL mouse Wnt3a, 18 to 24 hours, read-out: 2H9-Wnt3a-STF-FF/RL * 100 IC50): 95.9 nM; IC50 ([7]; 288 h, SW480, 0.5% FBS, 12 days): 1300 nM
